Measured values from BindingDB's records for doi:10.1016/j.bmc.2019.02.015 (2019).

Legend:
[1] = Inhibition of mouse GAT-2 expressed in HEK293 cells assessed as decrease in [3H]GABA uptake preincubated for 25 mins followed by [3H]GABA addition and measured after 10 mins by scintillation counting analysis
[2] = Inhibition of mouse GAT-3 expressed in HEK293 cells assessed as decrease in [3H]GABA uptake preincubated for 25 mins followed by [3H]GABA addition and measured after 4 mins by scintillation counting analysis

Work on `O=C(O)C1CCCN(CCON=Cc2cc(F)ccc2-c2ccc(Cl)cc2Cl)C1` (stereo unspecified) yielded an IC50 [1] of 17.8 µM.

Compound `O=C(O)C1CCCN(CCON=Cc2sccc2-c2ccc(Cl)cc2Cl)C1` (stereo unspecified) has an IC50 [2] of 91.2 µM and an IC50 [1] of 38 µM.

With `O=C(O)C1CCCN(CCON=Cc2ccccc2-c2ccc(Cl)cc2Cl)C1` (stereo unspecified) the IC50 [1] was 45.7 µM.

`O=C(O)[C@@H]1CCCN(CCON=Cc2ccccc2-c2ccc(Cl)cc2Cl)C1` gave an IC50 [2] of 57.5 µM and an IC50 [1] of 42.7 µM.
